pIC50, pKi: −log10 of the molar value.
What was measured:
[1] = target: T1, PDE4B1 (Homo sapiens, UniProt Q07343); test: IMAP FP PDE assay, % inhibition at […]; assay type: biochemical; conditions: read-out: PDE4B1 ^a
T1 construct: gene PDE4B; isoform PDE4B1, human recombinant

[2] = target: T2, PDE4A1A (Homo sapiens, UniProt P27815); test: IMAP FP PDE assay, % inhibition at […]; assay type: biochemical
T2 construct: gene PDE4A; isoform PDE4A1A, human recombinant

[3] = target: T2, PDE4A1A; test: IMAP FP PDE assay (FAM-cAMP), concentration-response; assay type: biochemical
[4] = target: T3, PDE4D3 (Homo sapiens, UniProt Q08499); test: IMAP FP PDE assay, % inhibition at […]; assay type: biochemical
T3 construct: gene PDE4D; isoform PDE4D3, human recombinant

[5] = target: T4, adenosine A2A receptor (Homo sapiens, UniProt P29274); test: radioligand displacement with [3H]-CGS21680; assay type: binding
T4 construct: gene ADORA2A; human recombinant, expressed in HEK 293 cells
T4 sequence (P29274 whole entry): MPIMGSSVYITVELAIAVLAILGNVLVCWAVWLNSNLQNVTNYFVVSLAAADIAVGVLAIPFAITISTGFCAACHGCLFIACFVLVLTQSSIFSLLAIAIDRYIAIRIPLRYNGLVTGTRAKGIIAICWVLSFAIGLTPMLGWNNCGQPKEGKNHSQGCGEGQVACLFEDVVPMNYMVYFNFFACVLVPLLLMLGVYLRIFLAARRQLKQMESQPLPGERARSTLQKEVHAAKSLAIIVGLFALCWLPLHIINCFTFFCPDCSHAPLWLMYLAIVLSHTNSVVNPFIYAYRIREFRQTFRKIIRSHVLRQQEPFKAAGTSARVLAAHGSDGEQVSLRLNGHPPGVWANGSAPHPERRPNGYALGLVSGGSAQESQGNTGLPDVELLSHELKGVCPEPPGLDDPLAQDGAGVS

T2 sequence (P27815 265-886 limits assumed): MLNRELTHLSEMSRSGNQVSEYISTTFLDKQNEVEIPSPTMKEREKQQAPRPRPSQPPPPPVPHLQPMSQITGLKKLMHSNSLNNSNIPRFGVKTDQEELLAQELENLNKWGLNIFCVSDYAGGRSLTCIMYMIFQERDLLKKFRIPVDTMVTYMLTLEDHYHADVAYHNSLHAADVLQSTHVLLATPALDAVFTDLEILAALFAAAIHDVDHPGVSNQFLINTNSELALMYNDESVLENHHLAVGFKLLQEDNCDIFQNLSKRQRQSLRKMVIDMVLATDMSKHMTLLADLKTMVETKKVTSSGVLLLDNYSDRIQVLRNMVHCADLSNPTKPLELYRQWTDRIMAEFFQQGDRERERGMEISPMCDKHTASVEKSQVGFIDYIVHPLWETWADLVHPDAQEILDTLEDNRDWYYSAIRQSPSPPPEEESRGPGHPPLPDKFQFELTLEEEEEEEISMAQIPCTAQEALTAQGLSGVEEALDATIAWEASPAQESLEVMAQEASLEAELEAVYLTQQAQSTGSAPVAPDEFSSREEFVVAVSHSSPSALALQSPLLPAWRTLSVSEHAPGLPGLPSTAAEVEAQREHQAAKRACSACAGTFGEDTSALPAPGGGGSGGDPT
T1 sequence (Q07343 whole entry, canonical isoform): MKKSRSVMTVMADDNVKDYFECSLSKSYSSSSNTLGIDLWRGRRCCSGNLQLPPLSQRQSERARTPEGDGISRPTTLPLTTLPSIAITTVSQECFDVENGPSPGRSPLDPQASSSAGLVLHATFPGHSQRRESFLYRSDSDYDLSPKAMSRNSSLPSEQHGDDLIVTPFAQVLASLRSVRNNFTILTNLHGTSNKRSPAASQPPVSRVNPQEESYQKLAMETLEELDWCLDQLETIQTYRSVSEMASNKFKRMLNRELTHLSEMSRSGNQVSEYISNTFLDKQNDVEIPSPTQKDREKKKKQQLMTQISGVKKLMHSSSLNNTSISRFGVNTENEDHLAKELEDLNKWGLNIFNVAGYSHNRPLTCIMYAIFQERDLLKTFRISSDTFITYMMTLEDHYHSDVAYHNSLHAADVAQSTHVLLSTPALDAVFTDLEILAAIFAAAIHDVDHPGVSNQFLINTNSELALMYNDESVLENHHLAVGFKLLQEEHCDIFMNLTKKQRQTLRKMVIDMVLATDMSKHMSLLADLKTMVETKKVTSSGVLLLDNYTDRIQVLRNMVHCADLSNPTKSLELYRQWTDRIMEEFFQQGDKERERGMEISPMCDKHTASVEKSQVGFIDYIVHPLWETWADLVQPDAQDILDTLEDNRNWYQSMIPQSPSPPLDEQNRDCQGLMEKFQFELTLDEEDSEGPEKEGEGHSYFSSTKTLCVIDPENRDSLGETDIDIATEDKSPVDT
T3 sequence (Q08499 153-809): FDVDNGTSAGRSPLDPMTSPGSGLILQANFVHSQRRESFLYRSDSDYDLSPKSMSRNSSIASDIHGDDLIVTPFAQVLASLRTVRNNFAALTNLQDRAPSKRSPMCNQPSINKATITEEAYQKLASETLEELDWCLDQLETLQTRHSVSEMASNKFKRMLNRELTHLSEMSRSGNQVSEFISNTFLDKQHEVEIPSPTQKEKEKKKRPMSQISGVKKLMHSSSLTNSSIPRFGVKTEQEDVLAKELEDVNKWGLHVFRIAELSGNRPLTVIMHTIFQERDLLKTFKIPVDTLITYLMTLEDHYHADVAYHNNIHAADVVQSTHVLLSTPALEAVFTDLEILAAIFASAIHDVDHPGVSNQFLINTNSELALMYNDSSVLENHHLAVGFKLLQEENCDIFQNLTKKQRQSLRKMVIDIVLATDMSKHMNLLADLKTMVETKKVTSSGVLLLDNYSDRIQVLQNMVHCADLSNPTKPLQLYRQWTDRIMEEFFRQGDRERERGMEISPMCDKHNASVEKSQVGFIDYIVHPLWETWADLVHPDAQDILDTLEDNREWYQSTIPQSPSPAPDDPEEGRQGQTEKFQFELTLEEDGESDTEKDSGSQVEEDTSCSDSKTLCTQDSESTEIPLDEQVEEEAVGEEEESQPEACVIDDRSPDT

inhibition at 10 µM [2] | Compound | inhibition at 10 µM [1] | pIC50 [3] | inhibition at 10 µM [4] | pKi [5]
53% | COc1ccc(/C=N/NC(=O)c2cccs2)cc1OC [compound 3, LASSBio-1834] | 48% | – | – | –
– | COc1ccc(/C=N/N(C)C(=O)c2cccs2)cc1OC [compound 4, LASSBio-1835] | 44% | 5.97 | 40% | 5.82

— PMC6316713, “Design, Synthesis, Experimental and Theoretical Characterization of a New Multitarget 2-Thienyl-N-Acylhydrazone Derivative” (Pharmaceuticals, 2018)
